Test results published in US20250241873A1, “KETAMINE NASAL SPRAY FORMULATION AND METHODS OF USE” (INESKET LLC, priority 2024, published 2025).
Like-named read-outs stand apart in the source and are kept apart here.

What was measured:
NMDA receptors = settings: cited from earlier work
[1] = Open-label absolute bioavailability / pharmacokinetic study of intranasal ketamine in healthy volunteers; type: in vivo, human; settings: for AUC(0-t): read-out: AUC (0-4 hr); for bioavailability / Absolute Bioavailability (%): relative to IV, dose-corrected ratio of least squares geometric mean AUC(inf)
Experimental: This was an open-label study in 25 healthy volunteers. Subjects received single doses of ketamine by intravenous (IV) injection (20 mg), intramuscular (IM) injection (20 mg), or intranasal (IN) administration (20 mg, 40 mg and 80 mg).
Blood samples for the measurement of plasma concentrations of (R)- and (S)-ketamine and (R)- and (S)-norketamine were collected pre-dose and at 0.033, 0.083, 0.167, 0.25, 0.333, 0.5, 0.75, 1, 1.25, 2, 2.5, 3, 4, 6, 8, 12, 16, and 24 hours post-dose for each study period.
All estimates for the parent and metabolite were consistent within each formulation or dose for the racemate, (R)-, and (S)-enantiomers. After IN administration, the estimates were slightly higher for the metabolite than the parent.

[2] = acidic pH near 4.5
From the text: A Buffer may be used to control the pH of the nasal spray solution at, or near 4.5. […] Also, the local pH value inside the nasal cavity directly influences the rate and extent of drug absorption. […] Additionally, maintaining pH at or above 4.0 helps to reduce local nasal tract irritation. The buffer is optional.

[3] = Dose 10 mg, hydro-alcoholic composition, minimum-maximum
[4] = Dose 20 mg, hydro-alcoholic composition, minimum-maximum
[5] = human, plasma, inhaled or intranasal, 20 mg, AUC (0-1 hr), intranasal, effective amount 20 mg
[6] = human, plasma, inhaled or intranasal, 20 mg, intranasal, effective amount 20 mg
[7] = human, plasma, inhaled or intranasal, intranasal, effective amount 20 mg
[8] = human, plasma, other: intranasal, Dose 10 mg, hydro-alcoholic composition, minimum-maximum
[9] = human, plasma, other: intranasal, Dose 20 mg, hydro-alcoholic composition, minimum-maximum
[10] = human, plasma, other: intranasal, IN administration of racemic ketamine 20 mg
[11] = human, plasma, other: intranasal, IN administration of racemic ketamine 40 mg
[12] = human, plasma, other: intranasal, IN administration of racemic ketamine 80 mg
[13] = IN administration of racemic ketamine 20 mg
[14] = IN administration of racemic ketamine 40 mg
[15] = IN administration of racemic ketamine 80 mg
[16] = Dose 40 mg, hydro-alcoholic composition, minimum-maximum
[17] = human, plasma, other: intranasal, Dose 40 mg, hydro-alcoholic composition, minimum-maximum

SMILES | AUC(0-1 hr) [1, 4] | AUC(0-4 hr) [1, 4] | Cmax [1, 9] [ng/mL] | Tmax [1, 9] [min] | bioavailability [1, 10] [%] | bioavailability [1, 11] [%] | bioavailability [1, 12] [%] | Absolute Bioavailability (%) [1, 13] [%] | Absolute Bioavailability (%) [1, 14] [%] | Absolute Bioavailability (%) [1, 15] [%] | also measured
CN[C@]1(c2ccccc2Cl)CCCCC1=O [(S)-Ketamine] | 30.9-96.7 hr′ng/mL | 66.9-181 hr′ng/mL | 41.3 to 161 | 10 to 30 | 82.4 | 68.9 | 51.5 | – | – | – | Ki (NMDA receptors): 3200 nM; AUC(0-1 hr) [1, 3]: 12.8-55.8 hr′ng/mL; AUC(0-4 hr) [1, 3]: 26.4-90.4 hr′ng/mL; AUC(0-1 hr) ([1]; human, plasma, inhaled or intranasal, 10 mg, AUC (0-1 hr), intranasal, effective amount 10 mg): 12.8 to 55.8 ng·h/mL; AUC(0-t) ([1]; human, plasma, inhaled or intranasal, 10 mg, intranasal, effective amount 10 mg): 26.4 to 90.4 ng·h/mL; AUC(0-1 hr) [1, 5]: 30.9 to 96.7 ng·h/mL; AUC(0-t) [1, 6]: 66.9 to 181 ng·h/mL; Tmax ([1]; human, plasma, inhaled or intranasal, intranasal, effective amount 10 mg): 5 to 19.8 min; Tmax [1, 7]: 10 to 30 min; Cmax [1, 8]: 21.4 to 125 ng/mL; Tmax [1, 8]: 5 to 20 min
NC1(c2ccccc2Cl)CCCCC1=O (racemic) [(RS)-Norketamine] | – | – | – | – | – | – | – | 94.4 | 78.8 | 54.8 | –
N[C@@]1(c2ccccc2Cl)CCCCC1=O [(R)-Norketamine] | – | – | – | – | – | – | – | 90.7 | 77.8 | 54.3 | –
N[C@]1(c2ccccc2Cl)CCCCC1=O [(S)-Norketamine] | – | – | – | – | – | – | – | 92.4 | 77.8 | 54.9 | –
CN[C@@]1(c2ccccc2Cl)CCCCC1=O [(R)-Ketamine] | 40.5-129 hr′ng/mL | 93.0-251 hr′ng/mL | 53.4 to 206 | 10 to 30 | 81.6 | 68.6 | 51.1 | – | – | – | Ki (NMDA receptors): 1100 nM; AUC(0-1 hr) [1, 3]: 15.9-70.8 hr′ng/mL; AUC(0-4 hr) [1, 3]: 33.6-118 hr′ng/mL; Cmax [1, 8]: 26.5 to 155 ng/mL; Tmax [1, 8]: 4.98 to 30 min
CNC1(c2ccccc2Cl)CCCCC1=O.Cl (stereo not drawn) [Es/ketamine HCl] | – | – | – | – | – | – | – | – | – | – | stability of solution [2]: better stability
CNC1(c2ccccc2Cl)CCCCC1=O (racemic) [(RS)-Ketamine, (2-(2-chlorophenyl)-2-(methylamino)-cyclohexanone)] | 28.7-127 hr′ng/mL | 60.0-209 hr′ng/mL | 48 to 280 | 4.98 to 30 | 82.1 | 69.1 | 51.8 | – | – | – | AUC(0-1 hr) [1, 16]: 71.4-225 hr′ng/mL; AUC(0-4 hr) [1, 16]: 160-433 hr′ng/mL; AUC(0-1 hr) [1, 5]: 28.7 to 127 ng·h/mL; AUC(0-t) [1, 6]: 60 to 209 ng·h/mL; AUC(0-1 hr) ([1]; human, plasma, inhaled or intranasal, 40 milligrams, AUC (0-1 hr), intranasal, effective amount 40 milligrams): 71.4 to 225 ng·h/mL; AUC(0-t) ([1]; human, plasma, inhaled or intranasal, 40 milligrams, intranasal, effective amount 40 milligrams): 160 to 433 ng·h/mL; Tmax [1, 7]: 4.98 to 30 min; Tmax ([1]; human, plasma, inhaled or intranasal, intranasal, effective amount 40 milligrams): 10 to 30 min; Cmax [1, 17]: 94.7 to 367 ng/mL; Tmax [1, 17]: 10 to 30 min
